The source of these data is patent publication US20100076015A1, “Aminopyridine Derivatives” (VANTIA LIMITED, priority 2008, published 2010).

The test addresses T1, Human KLK1 (Homo sapiens, UniProt P06870).
T1 construct: purchased Callbiochem (Calbiochem)
The experiment in a line: Determination of the IC50 for KLK1 (fluorogenic substrate H-DVal-Leu-Arg-AFC). It counts as biochemical. The settings on record: 37° C. An outline of the steps: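 Test compound at various concentrations was incubated with human KLK1 and the fluorogenic substrate H-DVal-Leu-Arg-AFC at 37° C. Absorbance change at 410 nm gave the initial reaction rate, from which IC50 was obtained.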

T1 sequence (P06870 25-262): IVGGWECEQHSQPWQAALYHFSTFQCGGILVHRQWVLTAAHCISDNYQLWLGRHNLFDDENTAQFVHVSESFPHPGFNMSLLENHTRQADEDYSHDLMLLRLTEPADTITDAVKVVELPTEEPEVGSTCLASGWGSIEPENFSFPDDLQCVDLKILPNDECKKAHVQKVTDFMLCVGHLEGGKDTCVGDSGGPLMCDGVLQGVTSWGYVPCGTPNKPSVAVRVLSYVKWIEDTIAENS

The molecule `Cc1cc[nH]c1C(=O)N[C@@H](Cc1ccccc1Cl)C(=O)NCc1ccc(N)nc1` [Example 262, 3-Methyl-1H-pyrrole-2-carboxylic acid [(S)-1-[(6-amino-pyridin-3-ylmethyl)-carbamoyl]-2-(2-chloro-phenyl)-ethyl]-amide] gave an IC50 of 28.3 nM.

Molecule `Nc1ccc(CNC(=O)[C@H](Cc2ccc(F)c(F)c2)NC(=O)[C@H]2CCCN2CC(=O)O)cn1` [Example 135, {(R)-2-[(S)-1-[(6-Amino-pyridin-3-ylmethyl)-carbamoyl]-2-(3,4-difluoro-phenyl)-ethylcarbamoyl]-pyrrolidin-1-yl}-acetic acid] gave an IC50 of 17.3 nM.

Molecule `CN1CCC[C@H]1C(=O)N[C@@H](CC1CCCCC1)C(=O)NCc1ccc(N)nc1` [Example 382, (S)-1-Methyl-pyrrolidine-2-carboxylic acid {(S)-1-[(6-amino-pyridin-3-ylmethyl)-carbamoyl]-2-cyclohexyl-ethyl}-amide] registered a 50% inhibitory concentration (IC50) of 48.6 nM.

`Nc1ccc(CNC(=O)[C@H](CC2CCCCC2)NC(=O)c2cc3ccccc3[nH]2)cn1` [Example 338, 1H-Indole-2-carboxylic acid {(S)-1-[(6-amino-pyridin-3-ylmethyl)-carbamoyl]-2-cyclohexyl-ethyl}-amide] showed an IC50 of 881 nM.

Molecule `CCCCN(C)CC(=O)N[C@@H](Cc1ccc(F)c(F)c1)C(=O)NCc1ccc(N)nc1` [Example 167, (S)—N-(6-Amino-pyridin-3-ylmethyl)-2-[2-(butyl-methyl-amino)-acetylamino]-3-(3,4-difluoro-phenyl)-propionamide] returned an IC50 of 258 nM.

With `CN(CC(=O)N[C@@H](Cc1ccc(F)c(F)c1)C(=O)NCc1ccc(N)nc1)c1ccccc1` [Example 174, (S)—N-(6-Amino-pyridin-3-ylmethyl)-3-(3,4-difluoro-phenyl)-2-[2-(methyl-phenyl-amino)-acetylamino]-propionamide], the IC50 was 90 nM.

`CCC(C)[C@@H](N)C(=O)N[C@@H](Cc1ccc(F)c(F)c1)C(=O)NCc1ccc(N)nc1` (stereo partly drawn) [Example 32, (R)-2-Amino-3-methyl-pentanoic acid [(S)-1-[(6-amino-pyridin-3-ylmethyl)-carbamoyl]-2-(3,4-difluoro-phenyl)-ethyl]-amide]: the IC50 came to 2.8 nM.

`CN1CCC[C@@H]1C(=O)N[C@@H](Cc1ccc(F)cc1)C(=O)NCc1ccc(N)nc1` [Example 98, (R)-1-Methyl-pyrrolidine-2-carboxylic acid [(S)-1-[(6-amino-pyridin-3-ylmethyl)-carbamoyl]-2-(4-fluoro-phenyl)-ethyl]-amide] came in with an IC50 of 1.3 nM.

`CN(C)C(Cc1ccccc1)C(=O)NC(Cc1cccc(Cl)c1)C(=O)NCc1ccc(N)nc1` [Example 407, (R)—N-[(S)-1-[6-Amino-pyridin-3-ylmethyl)-carbamoyl]-2-(3-chloro-phenyl)-ethyl]-2-dimethylamino-3-phenyl-propionamide]: the IC50 came out at 17 nM.

`C[C@@H](C(=O)N[C@@H](Cc1ccc(F)c(F)c1)C(=O)NCc1ccc(N)nc1)N1CCCC1` [Example 357, (S)—N-[(S)-1-[(6-Amino-pyridin-3-ylmethyl)-carbamoyl]-2-(3,4-difluoro-phenyl)-ethyl]-2-pyrrolidin-1-yl-propionamide]: it took 3 nM to reach half-maximal inhibition (IC50).

In turn, `CCC(C)[C@@H](N)C(=O)N[C@@H](Cc1ccc2ccccc2c1)C(=O)NCc1ccc(N)nc1` (stereo partly drawn) [Example 34, (R)-2-Amino-3-methyl-pentanoic acid {(S)-1-[(6-amino-pyridin-3-ylmethyl)-carbamoyl]-2-naphthalen-2-yl-ethyl}-amide] gave an IC50 of 3.3 nM.

As to `CCC(C)[C@@H](NS(C)(=O)=O)C(=O)N[C@@H](Cc1ccc(Cl)c(Cl)c1)C(=O)NCc1ccc(N)nc1` (stereo partly drawn) [Example 211, (R)-2-Methanesulfonylamino-3-methyl-pentanoic acid [(S)-1-[(6-amino-pyridin-3-ylmethyl)-carbamoyl]-2-(3,4-dichloro-phenyl)-ethyl]-amide], the IC50 came to 0.29 nM.

On to `CN[C@H](Cc1ccccc1)C(=O)N[C@@H](Cc1ccc(F)c(F)c1)C(=O)NCc1ccc(N)nc1` [Example 81, (R)—N-[(S)-1-[(6-Amino-pyridin-3-ylmethyl)carbamoyl]-2-(3,4-difluoro-phenyl)-ethyl]-2-methylamino-3-phenyl-propionamide], for which the IC50 was 5 nM.

In the case of `CCC(C)[C@H](N)C(=O)N[C@@H](CC1CCCC2CCCCC21)C(=O)NCc1ccc(N)nc1` (stereo partly drawn) [Example 12, (S)-2-Amino-3-methyl-pentanoic acid [(S)-1-[(6-amino-pyridin-3-ylmethyl)-carbamoyl]-2-(decahydro-naphthalen-1-yl)-ethyl]-amide], the IC50 was found to be 6.3 nM.

The molecule `Nc1ccc(CNC(=O)[C@H](Cc2cccc3ccccc23)NC(=O)c2cc3ccccc3[nH]2)cn1` [Example 298, 1H-Indole-2-carboxylic acid {(S)-1-[(6-amino-pyridin-3-ylmethyl)-carbamoyl]-2-naphthalen-1-yl-ethyl}-amide] displayed an IC50 of 9.4 nM.

Molecule `Nc1ccc(CNC(=O)[C@H](Cc2cc(F)c(F)cc2F)NC(=O)c2cc3ccccc3[nH]2)cn1` [Example 324, 1H-Indole-2-carboxylic acid [(S)-1-[(6-amino-pyridin-3-ylmethyl)-carbamoyl]-2-(2,4,5-trifluoro-phenyl)-ethyl]-amide] displayed an IC50 of 68.4 nM.

Consider `CC(C1CCCCC1)[C@@H](NC(=O)[C@H](C)N(C)C(C)C)C(=O)NCc1ccc(N)nc1` (stereo partly drawn) [Example 436, (R)—N-(6-Amino-pyridin-3-ylmethyl)-3-cyclohexyl-2-[(S)-2-(isopropyl-methyl-amino)-propionylamino]-butyramide], for which the midpoint of inhibition, the IC50, lay at 3.6 nM.

As for `CC(C)N1CCC[C@@H]1C(=O)N[C@@H](Cc1ccccc1Cl)C(=O)NCc1ccc(N)nc1` [Example 126, (R)-1-Isopropyl-pyrrolidine-2-carboxylic acid [(S)-1-[(6-amino-pyridin-3-ylmethyl)-carbamoyl]-2-(2-chloro-phenyl)-ethyl]-amide], it took 9.3 nM to reach half-maximal inhibition (IC50).

As to `CCCCN(C)[C@@H](C)C(=O)N[C@@H](Cc1ccc(F)cc1)C(=O)NCc1ccc(N)nc1` [Example 369, (S)—N-[(S)-1-[(6-Amino-pyridin-3-ylmethyl)-carbamoyl]-2-(4-fluoro-phenyl)-ethyl]-2-(butyl-methyl-amino)-propionamide], the IC50 is 29.1 nM.

On to `CN[C@@H](C(=O)N[C@@H](Cc1ccc(F)cc1)C(=O)NCc1ccc(N)nc1)C(C)C` [Example 89, (R)—N-[(S)-1-[(6-Amino-pyridin-3-ylmethyl)-carbamoyl]-2-(4-fluoro-phenyl)-ethyl]-3-methyl-2-methylamino-butyramide], for which the IC50 turned out to be 11 nM.

The molecule `Cc1ccccc1C[C@H](NC(=O)[C@H]1CCCN1C)C(=O)NCc1ccc(N)nc1` [Example 104, (R)-1-Methyl-pyrrolidine-2-carboxylic acid {(S)-1-[(6-amino-pyridin-3-ylmethyl)-carbamoyl]-2-o-tolyl-ethyl}-amide] displayed an IC50 of 24.4 nM.

Turning to `COc1ccc2[nH]c(C(=O)N[C@@H](Cc3cccc(C(F)(F)F)c3)C(=O)NCc3ccc(N)nc3)cc2c1` [Example 308, 5-Methoxy-1H-indole-2-carboxylic acid [(S)-1-[(6-amino-pyridin-3-ylmethyl)-carbamoyl]-2-(3-trifluoromethyl-phenyl)-ethyl]-amide], 15.6 nM corresponded to half-maximal inhibition (IC50).

`Nc1ccc(CNC(=O)[C@H](Cc2cccc(F)c2)NC(=O)c2ncc[nH]2)cn1` [Example 288, 1H-Imidazole-2-carboxylic acid [(S)-1-[(6-amino-pyridin-3-ylmethyl)-carbamoyl]-2-(3-fluoro-phenyl)-ethyl]-amide] came in with an IC50 of 93.2 nM.

The molecule `CCN(CC)CC(=O)N[C@@H](Cc1ccc(F)c(F)c1)C(=O)NCc1ccc(N)nc1` [Example 10, (S)—N-(6-Amino-pyridin-3-ylmethyl)-2-(2-diethylamino-acetylamino)-3-(3,4-difluoro-phenyl)-propionamide] registered an IC50 of 13.7 nM.

`C[C@H](C(=O)N[C@@H](Cc1ccc(F)cc1)C(=O)NCc1ccc(N)nc1)N1CCCCC1` [Example 374, (R)—N-[(S)-1-[(6-Amino-pyridin-3-ylmethyl)-carbamoyl]-2-(4-fluoro-phenyl)-ethyl]-2-piperidin-1-yl-propionamide]: half-maximal inhibition (IC50) was put at 52.7 nM.

`CCC(C)[C@H](NC)C(=O)N[C@@H](CC1CCCCC1)C(=O)NCc1ccc(N)nc1` (stereo partly drawn) [Example 339, (S)-3-Methyl-2-methylamino-pentanoic acid {(S)-1-[(6-amino-pyridin-3-ylmethyl)-carbamoyl]-2-cyclohexyl-ethyl}-amide] had an IC50 of 39.8 nM.

Molecule `Cc1cc(C)c(C(=O)N[C@@H](Cc2ccc(-c3ccccc3)cc2)C(=O)NCc2ccc(N)nc2)[nH]1` [Example 252, 3,5-Dimethyl-1H-pyrrole-2-carboxylic acid {(S)-1-[(6-amino-pyridin-3-ylmethyl)-carbamoyl]-2-biphenyl-4-yl-ethyl}-amide] came in with an IC50 of 43.2 nM.

Molecule `Cc1nc(N)ccc1CNC(=O)[C@H](Cc1ccc(F)c(F)c1)NC(=O)[C@H](C)N1CCCCC1` [Example 432, (S)—N-[(S)-1-[(6-Amino-2-methyl-pyridin-3-ylmethyl)-carbamoyl]-2-(3,4-difluoro-phenyl)-ethyl]-2-piperidin-1-yl-propionamide] showed an IC50 of 17 nM.

In the case of `Cc1cc[nH]c1C(=O)N[C@@H](Cc1cc(Cl)ccc1Cl)C(=O)NCc1ccc(N)nc1` [Example 263, 3-Methyl-1H-pyrrole-2-carboxylic acid [(S)-1-[(6-amino-pyridin-3-ylmethyl)-carbamoyl]-2-(2,5-dichloro-phenyl)-ethyl]-amide], the IC50 amounted to 20.5 nM.

`CN1CCC[C@H]1C(=O)N[C@@H](Cc1ccc(F)c(F)c1)C(=O)NCc1ccc(N)nc1` [Example 116, (S)-1-Methyl-pyrrolidine-2-carboxylic acid [(S)-1-[(6-amino-pyridin-3-ylmethyl)-carbamoyl]-2-(3,4-difluoro-phenyl)-ethyl]-amide] came in with an IC50 of 16.1 nM.

Take `Nc1ccc(CNC(=O)[C@H](Cc2ccc(F)c(F)c2)NC(=O)CNCCc2ccccc2)cn1` [Example 160, (S)—N-(6-Amino-pyridin-3-ylmethyl)-3-(3,4-difluoro-phenyl)-2-(2-phenethylamino-acetylamino)-propionamide]: the IC50 worked out at 185 nM.
